Numbering of substitutions follows the chain as printed.
Key:
[1] = target: T1, wild-type human (WT) Slack (Homo sapiens, UniProt Q5JUK3); assay: Tl+ flux assay in HEK-293 cells stably expressing WT Slack; type: cell-based; conditions: for Slack activity profile in words: running text and footnotes, WT Slack Tl+ flux; for IC50 / EC50 (result in words): Table 3, no mode assigned
T1 sequence (Q5JUK3 1-1235 isoform Q5JUK3-3): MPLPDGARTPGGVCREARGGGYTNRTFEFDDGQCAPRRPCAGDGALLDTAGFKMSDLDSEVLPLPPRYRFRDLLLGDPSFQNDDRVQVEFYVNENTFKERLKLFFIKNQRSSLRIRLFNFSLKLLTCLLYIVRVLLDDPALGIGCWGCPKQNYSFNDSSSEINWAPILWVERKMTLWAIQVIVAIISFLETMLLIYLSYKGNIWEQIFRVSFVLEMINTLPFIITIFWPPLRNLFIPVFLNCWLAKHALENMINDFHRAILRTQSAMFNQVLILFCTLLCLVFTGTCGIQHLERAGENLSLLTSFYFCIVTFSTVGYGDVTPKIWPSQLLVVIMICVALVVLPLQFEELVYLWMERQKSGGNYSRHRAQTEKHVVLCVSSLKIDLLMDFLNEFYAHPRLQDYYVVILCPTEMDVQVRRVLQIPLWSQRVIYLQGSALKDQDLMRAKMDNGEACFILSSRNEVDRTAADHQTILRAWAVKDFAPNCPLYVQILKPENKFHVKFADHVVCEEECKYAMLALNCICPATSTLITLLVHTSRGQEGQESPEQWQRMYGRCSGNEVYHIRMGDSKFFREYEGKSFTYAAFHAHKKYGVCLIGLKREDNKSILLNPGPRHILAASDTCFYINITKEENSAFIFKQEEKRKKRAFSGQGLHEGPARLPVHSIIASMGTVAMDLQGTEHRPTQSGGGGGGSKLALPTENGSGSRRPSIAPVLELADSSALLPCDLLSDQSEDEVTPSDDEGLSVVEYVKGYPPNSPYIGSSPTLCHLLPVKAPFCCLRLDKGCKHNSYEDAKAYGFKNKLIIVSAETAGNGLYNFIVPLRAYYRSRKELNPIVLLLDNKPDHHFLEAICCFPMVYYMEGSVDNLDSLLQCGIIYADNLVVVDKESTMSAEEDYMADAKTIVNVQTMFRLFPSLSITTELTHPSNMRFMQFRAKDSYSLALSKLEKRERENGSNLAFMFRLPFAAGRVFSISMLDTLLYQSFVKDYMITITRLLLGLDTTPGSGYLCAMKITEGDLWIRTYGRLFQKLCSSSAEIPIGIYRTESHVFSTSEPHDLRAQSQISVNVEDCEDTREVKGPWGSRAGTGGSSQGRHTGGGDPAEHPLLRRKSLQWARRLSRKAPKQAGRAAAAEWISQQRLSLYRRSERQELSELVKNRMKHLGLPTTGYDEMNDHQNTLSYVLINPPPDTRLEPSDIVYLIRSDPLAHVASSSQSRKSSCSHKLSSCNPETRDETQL

[2] = test system: human wild-type (WT) Slack channels; conditions: whole-cell patch clamp, HEK-293, human WT Slack; cited from earlier work
Maxi-K (Slo1 α1/β3) = Maxi-K (Slo1 α1/β3) (Homo sapiens, UniProt Q12791); assay: Tl+ flux assay in HEK-293 cells expressing Maxi-K; type: cell-based; conditions: for Maxi-K inhibition in words / Maxi-K (Slo1 α1/β3) IC50: Tl+ flux; for Maxi-K (Slo1 α1/β3) Efficacy: 30 µM test compound, % of maximum response for paxilline; for Maxi-K (Slo1 α1/β3) IC50: CRC, HEK-293 expressing Maxi-K
[3] = test system: cortical neuronal culture; conditions: overexcited, spontaneously firing cortical neuronal culture; cited from earlier work
A934T Slack = target: T2, A934T Slack (Homo sapiens, UniProt Q5JUK3, A915T); assay: Tl+ flux assay in HEK-293 cells expressing A934T Slack; conditions: Table 6; 30 µM test compound, % of maximum response for VU0606170
T2 sequence (Q5JUK3 1-1235 isoform Q5JUK3-3 A934T): T1 sequence (Q5JUK3 1-1235 isoform Q5JUK3-3) with A934T

mouse model of Kcnt1 GOF = conditions: orally available; cited from earlier work

Maxi-K (Slo1 α1/β3), sequence (Q12791 whole entry, species assumed): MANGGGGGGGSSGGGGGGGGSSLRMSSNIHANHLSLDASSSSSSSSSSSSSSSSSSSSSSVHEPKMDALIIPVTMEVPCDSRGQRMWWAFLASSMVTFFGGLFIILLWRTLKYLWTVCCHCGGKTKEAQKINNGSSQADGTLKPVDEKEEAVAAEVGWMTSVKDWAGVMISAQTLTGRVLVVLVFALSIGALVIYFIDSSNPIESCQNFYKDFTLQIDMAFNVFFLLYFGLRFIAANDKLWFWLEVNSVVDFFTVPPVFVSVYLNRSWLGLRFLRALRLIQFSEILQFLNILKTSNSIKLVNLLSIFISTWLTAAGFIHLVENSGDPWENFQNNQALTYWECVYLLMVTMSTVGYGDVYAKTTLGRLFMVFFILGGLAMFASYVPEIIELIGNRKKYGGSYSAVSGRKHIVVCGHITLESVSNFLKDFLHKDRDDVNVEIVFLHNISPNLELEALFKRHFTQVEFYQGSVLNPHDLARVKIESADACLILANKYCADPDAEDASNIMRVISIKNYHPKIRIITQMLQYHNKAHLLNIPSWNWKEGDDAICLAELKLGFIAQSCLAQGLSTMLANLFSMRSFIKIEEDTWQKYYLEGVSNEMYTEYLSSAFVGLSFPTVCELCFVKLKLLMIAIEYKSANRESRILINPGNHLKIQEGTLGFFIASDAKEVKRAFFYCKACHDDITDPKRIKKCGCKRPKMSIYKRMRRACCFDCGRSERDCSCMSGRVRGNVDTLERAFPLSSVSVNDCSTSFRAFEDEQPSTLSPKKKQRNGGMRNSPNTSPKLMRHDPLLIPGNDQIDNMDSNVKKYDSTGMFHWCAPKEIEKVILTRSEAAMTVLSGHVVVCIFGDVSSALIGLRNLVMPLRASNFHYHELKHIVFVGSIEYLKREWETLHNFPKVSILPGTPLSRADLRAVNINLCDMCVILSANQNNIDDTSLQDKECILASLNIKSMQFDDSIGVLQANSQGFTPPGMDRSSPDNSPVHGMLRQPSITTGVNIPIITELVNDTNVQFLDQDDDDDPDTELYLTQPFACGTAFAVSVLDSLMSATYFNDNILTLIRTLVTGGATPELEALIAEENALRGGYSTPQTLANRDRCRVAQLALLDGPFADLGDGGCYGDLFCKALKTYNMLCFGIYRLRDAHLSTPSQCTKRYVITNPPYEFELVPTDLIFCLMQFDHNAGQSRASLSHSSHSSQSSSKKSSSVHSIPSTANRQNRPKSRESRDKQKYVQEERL
Maxi-K (Slo1 α1/β3), sequence (Q9NPA1 whole entry partner, species assumed): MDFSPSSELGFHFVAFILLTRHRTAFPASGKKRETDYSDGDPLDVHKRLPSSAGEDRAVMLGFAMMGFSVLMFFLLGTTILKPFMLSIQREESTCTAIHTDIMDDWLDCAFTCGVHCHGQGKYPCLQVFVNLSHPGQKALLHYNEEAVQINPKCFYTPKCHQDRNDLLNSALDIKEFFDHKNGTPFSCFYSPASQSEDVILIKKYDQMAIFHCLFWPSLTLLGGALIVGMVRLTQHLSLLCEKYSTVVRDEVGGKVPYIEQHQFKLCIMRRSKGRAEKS

| Structure (SMILES) | Slack activity profile in words [1] | further results |
| --- | --- | --- |
| COc1ccc(Cl)cc1NC(=O)N1C[C@@H]2CN(S(=O)(=O)N3CCC(C)CC3)C[C@@H]2C1 [Compound 91] | devoid of activity | – |
| CC1CCN(S(=O)(=O)N2CCN(CC(=O)Nc3ccccc3Cl)CC2)CC1 [Compound 15] | mixed profile | – |
| COc1cccc(NC(=O)CN2CCN(S(=O)(=O)N3CCC(C)CC3)CC2)c1 [Compound 22] | mixed profile | – |
| COc1ccc(Cl)cc1NC(=O)N1CC2(CCN(S(=O)(=O)N3CCC(C)CC3)CC2)C1 [Compound 88] | weak activators | – |
| COc1ccc(Cl)cc1NC(=O)N1CCCN(S(=O)(=O)N2CCC(C)CC2)CC1 [Compound 92] | moderately potent | – |
| COc1ccc(Cl)cc1NC(=O)CN1CCN(S(=O)(=O)N2CCC(C)CC2)C[C@@H]1C [Compound 71] | well tolerated | – |
| COc1ccc(Cl)cc1NC(=O)N1CC2(C1)CN(S(=O)(=O)N1CCC(C)CC1)C2 [Compound 90] | weak inhibitor | – |
| COc1ccc(Cl)cc1NC(=O)CN(C)CCN(C)S(=O)(=O)N1CCC(C)CC1 [Compound 81] | retained inhibitory activity but exhibited reduced potency | – |
| COc1ccc(Cl)cc1NC(=O)CN1CCN(S(=O)(=O)N2CCN(S(=O)(=O)N3CCC(F)(F)C3)CC2)CC1 [Compound 50] | weak activators | – |
| Cc1cccc(CC(=O)Nc2cnn(-c3cccc(C(=O)NCc4ccccc4-n4cncn4)c3)c2)c1 [Compound 1] | – | IC50 [2]: 3.2 µM |
| CC1CCN(S(=O)(=O)N2CCN(CC(=O)Nc3cc(Cl)ccc3Cl)CC2)CC1 [Compound 30] | not effective | – |
| CCCC1CCN(C(=O)N2CCN(S(=O)(=O)N3CCN(CC(=O)Nc4cc(Cl)ccc4OC)CC3)CC2)CC1 [Compound 52] | weak inhibitor | – |
| COc1ccc(Cl)cc1NC(=O)CN1CCN(S(=O)(=O)N2CCC(C)CC2)[C@@H](C)C1 [Compound 68] | significantly reduced potency | – |
| Cc1cccc(NC(=O)CN2CCN(S(=O)(=O)N3CCC(C)CC3)CC2)c1 [Compound 19] | mixed profile | – |
| Cc1ccccc1NC(=O)CN1CCN(S(=O)(=O)N2CCC(C)CC2)CC1 [Compound 18] | mixed profile | – |
| CC1CCN(S(=O)(=O)N2CCN(CC(=O)Nc3cc(Cl)ccc3F)CC2)CC1 [Compound 29] | not effective | – |

| Structure (SMILES) | Slack activity profile in words [1] | further results |
| --- | --- | --- |
| COc1ccc(Cl)cc1NC(=O)CN1CCN(S(=O)(=O)N2CCC(C)CC2)C[C@H]1C [Compound 87] | equipotent to hit compound 4 | Maxi-K inhibition in words (Maxi-K (Slo1 α1/β3)): weak inhibition |
| COc1ccc(Cl)cc1NC(=O)CN1CCN(S(=O)(=O)N2CCC(C)CC2)CC1 [Compound 4] | – | firing rate [3]: decreased the firing rate; Maxi-K (Slo1 α1/β3) Efficacy (Maxi-K (Slo1 α1/β3)): inactive; Maxi-K (Slo1 α1/β3) IC50 (Maxi-K (Slo1 α1/β3)): inactive; IC50 / EC50 (IC50, inhibitors) ([1]; Table 1, CRC, Tl+ flux, HEK-293 WT Slack, Mode Inh): 2.4 µM |
| Cc1ccc(Cl)cc1NC(=O)CN1CCN(S(=O)(=O)N2CCC(C)CC2)CC1 [Compound 31] | not effective | – |
| COc1ccc(Cl)cc1NC(=O)CN1CCN(S(=O)(=O)N2CCN(C(=O)N3CCC(C(C)C)CC3)CC2)CC1 [Compound 53] | mixed profile | – |
| COc1ccc(F)cc1NC(=O)CN1CCN(S(=O)(=O)N2CCC(C)CC2)CC1 [Compound 24] | – | A934T Efficacy (A934T Slack): 100% |
| COc1ccc(Cl)cc1NC(=O)CN1CCN(S(=O)(=O)N2CCN(S(=O)(=O)c3ccc(C)cc3)CC2)CC1 [Compound 47] | – | IC50 / EC50 (result in words) [1]: inactive |
| COc1ccc(Cl)cc1NC(=O)[C@H](C)N1CCN(S(=O)(=O)N2CCC(C(F)(F)F)CC2)CC1 [Compound 61] | – | Maxi-K (Slo1 α1/β3) Efficacy (Maxi-K (Slo1 α1/β3)): inactive; Maxi-K (Slo1 α1/β3) IC50 (Maxi-K (Slo1 α1/β3)): inactive; Maxi-K inhibition in words (Maxi-K (Slo1 α1/β3)): inactive |
| COc1ccc(Cl)cc1NC(=O)CN1CCN(S(=O)(=O)N2CCN(S(=O)(=O)N3CCOCC3)CC2)CC1 [Compound 44] | – | IC50 / EC50 (result in words) [1]: inactive |
| COc1ccc(Cl)cc1NC(=O)CN1CCN(S(=O)(=O)N2CCN(C(=O)N3CCCCC3)CC2)CC1 [Compound 51] | weak activators | – |
| COc1ccc(Cl)cc1NC(=O)CN1CCN(S(=O)(=O)N2CCN(C(=O)N3CCCCCC3)CC2)CC1 [Compound 55] | weak activators | – |
| C[C@H](NC(=O)c1cc(C(F)(F)F)nn1C)c1nc(-c2ccnc(C(F)(F)F)c2)no1 [Compound 3] | – | EEG phenotype (mouse model of Kcnt1 GOF): normalizes the EEG phenotype |
| COc1ccc(Cl)cc1NC(=O)CN1CCN(S(=O)(=O)N2CCN(S(=O)(=O)N3CCCCC3)CC2)CC1 [Compound 43] | – | IC50 / EC50 (result in words) [1]: inactive |
| COc1ccc(Cl)cc1NC(=O)CN1CCN(S(=O)(=O)N2CCC(C)CC2)[C@H](C)C1 [Compound 86] | significantly reduced potency | – |
| COc1ccc(Cl)cc1NC(=O)CN1CCN(S(=O)(=O)N2CCN(S(=O)(=O)C3CCCCC3)CC2)CC1 [Compound 45] | – | IC50 / EC50 (result in words) [1]: inactive |
| COc1ccccc1NC(=O)CN1CCN(S(=O)(=O)N2CCC(C)CC2)CC1 [Compound 21] | maintained the inhibitory profile | – |
| COc1ccc(C(F)(F)F)cc1NC(=O)CN1CCN(S(=O)(=O)N2CCC(C)CC2)CC1 [Compound 27] | – | Maxi-K inhibition in words (Maxi-K (Slo1 α1/β3)): weak inhibition |
